Experimental data from patent US5104980A, “Chromogenic dibenzoxazepinone and dibenzothiazepinone enzyme substrates” (Miles Inc., priority 1989, dated 1992).

Test system: β-galactosidase
Assay: cleavage of the chromogenic substrate by β-galactosidase in 50 mM phosphate buffer
Assay type: biochemical
Conditions: 50 mM phosphate buffer at pH 7.4 containing 5 mM MgCl2; in the presence of β-galactosidase
Experimental: When dissolved in 50 mM phosphate buffer at pH 7.4 containing 5 mM magnesium chloride (MgCl2) compound (23)+(24) (mixture) had λmax of 454 nm (^ε =22,000) and 344 nm (^ε =14,000).

Q: Which Km does the source give for “8-β-D-Galactopyranosyloxy-11-methyl-11H-dibenz[b,e] [1,4]oxazepin-1-one (23) and 2-β-D-galactopyranosyloxy-11-methyl-11H-dibenz[b,e][1,4]oxazepin-8-one (24) [(23)+(24)]” here?
A: 75 µM

Q: And the “rate (Kcat) of cleavage of the substrate to (20)” value?
A: 1.32×10^4 mol. min^-1 /mol. active site
